The structures appear in SMILES notation. Read-outs that look alike come from different tables or passages of the source.

The values below come from patent US20240124454A1, “TRICYCLIC COMPOUND AND USE THEREOF” (NANJING ZAIMING PHARMACEUTICAL CO., LTD., priority 2020, published 2024).

The test concerns the target MAT2A (Homo sapiens (Human), UniProt P31153). Kind of test: MAT2A biochemical test (inorganic phosphate colorimetric, PiColorLock). To be noted: read-out: MAT2A inhibitory Activity IC50. From the text:
Test Example 1. Biochemical Test
The brief introduction of the test principle: L-methionine and ATP can be converted into SAM, inorganic phosphate, and inorganic diphosphate under the catalysis of MAT2A enzymes. The content of inorganic phosphate in the sample can be quantitatively determined by adding a developer such as ammonium molybdate or the like to the enzymatic reaction mixture, thereby reflecting the enzymatic activity of MAT2A.
Reference: The experiment referred to the method disclosed in patent WO2018045071.
Material: MAT2A screening kits were purchased from BPS bioscience (U.S.); 384-well plates were purchased from Corning Company (U.S.). • 1. MAT2A protein (Pharmaron Beijing Co., Ltd.); • 2. L-methionine (Sigma #M9625-5G) • 3. ATP (Sigma #A7699-1G) • 4. KCl (Sigma #60142-500ML-F) • 5. Tris (Sigma #T2663-1L) • 6. MgCl2 (Sigma #M1028) • 7. EDTA (Invitrogen #AM9260G) • 8. BSA (Sangon Biotech #A500023-0100) • 9. PiColorLock (abcam #ab270004)
Detection method: In the experimental group, the test compound was dissolved in DMSO, diluted to a final concentration of 10 μM using Echo, and diluted 3-fold. 80 nL of the dilution was transferred to a 384-well plate.
The experimental buffer (50 mM Tris, 50 mM KCl, 15 mM MgCl2, 100 μM EDTA, 0.005% BSA) was prepared. The MAT2A protein was diluted with the experimental buffer (at final concentration of […]). 40 μL of 2×MAT2A solution was added to the 384-well plate. The plate was centrifuged at 1000 rpm for 1 min and incubated at room temperature for 120 min.
L-methionine and ATP (the final concentration of L-methionine was […] and the final concentration of ATP was 400 μM) were diluted with the experimental buffer. 40 μL of 2×L-methionine and ATP solution was added to initiate the reaction. The plate was centrifuged at 1000 rpm for 1 min and incubated at room temperature for 90 min.
The PiColorLock™ reaction catalyst was mixed with the PiColorLock™ buffer at a ratio of 1:100 according to the instructions. 20 μL was added to each well, and the plate was shaken for 30 s. 8 μL stabilizing reagent was added, and the plate was shaken for 30 s. The signal values were measured after 30 min of incubation at room temperature.
A negative control group and a positive control group were respectively used as Bottom and Top. The negative control group was not added with MAT2A protein, and other operations were consistent with those of the experimental group. The positive control group was not added with the test compound, only added with DMSO in the same volume, and other operations were consistent with those of the experimental group.
The % Compound inhibition was calculated and fitted to give the IC50 of the compound.
% Compound inhibition=1-100%×(Signal−Bottom)/(Top−Bottom).
Signal referred to the signal value of the experimental group, Bottom referred to the average signal value of the negative control group, and Top referred to the average signal value of the positive control group.
Under the condition of this experiment, the inhibitory effect of the test compound on MAT2A can be expressed as the IC50 of the inhibition on the phosphate production level during the enzymatic reaction.

MAT2A, sequence (P31153 whole entry): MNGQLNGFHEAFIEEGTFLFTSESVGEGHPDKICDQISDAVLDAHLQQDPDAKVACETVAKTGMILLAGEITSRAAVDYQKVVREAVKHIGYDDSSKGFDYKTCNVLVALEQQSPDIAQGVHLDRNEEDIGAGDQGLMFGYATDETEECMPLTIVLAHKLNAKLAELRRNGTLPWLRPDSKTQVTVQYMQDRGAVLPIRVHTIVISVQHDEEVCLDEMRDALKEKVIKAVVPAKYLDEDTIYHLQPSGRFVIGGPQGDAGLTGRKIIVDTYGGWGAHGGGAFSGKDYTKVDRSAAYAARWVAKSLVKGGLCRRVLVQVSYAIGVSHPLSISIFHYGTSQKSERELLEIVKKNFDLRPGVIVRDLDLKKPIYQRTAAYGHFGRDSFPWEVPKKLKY

What is called IC50 is the concentration at which inhibition is half-maximal. Regarding `Cn1cnc2c(=O)n(-c3cccnc3C3CC3)c3cc(C(F)(F)F)ccc3c21` (atropisomer, axis not shown) [Compound 48, 5-(2-cyclopropylpyridin-3-yl)-1-methyl-7-(trifluoromethyl)-1,5-dihydro-4H-imidazo[4,5-c]quinolin-4-one], the IC50 (class symbols) was < 0.1 µM and the IC50 (numeric values) was 0.036 µM.

Take `Cn1cnc2c(=O)n(-c3ccccc3C(F)(F)F)c3nc(C(F)(F)F)ccc3c21` (single isomer, unassigned) [Compound 57-P2, 1-methyl-7-(trifluoromethyl)-5-(2-(trifluoromethyl)phenyl)-1,5-dihydro-4H-imidazo[4,5-c][1,8]naphthyridin-4-one]: the IC50 runs as follows: (class symbols) < 0.1 µM; (numeric values) 0.042 µM.

In the case of `Cn1cnc2c(=O)n(-c3ccc(OC(F)F)cc3Cl)c3nc(C(F)(F)F)ccc3c21` (single isomer, unassigned) [Compound 58-P2, 5-(2-chloro-4-(difluoromethoxy)phenyl)-1-methyl-7-(trifluoromethyl)-1,5-dihydro-4H-imidazo[4,5-c][1,8]naphthyridin-4-one], the IC50 is < 0.1 µM (class symbols) and 0.0908 µM (numeric values).

Consider `CCc1ncccc1-n1c(=O)c2ncn(C)c2c2ccc(C(F)(F)F)nc21` (single isomer, unassigned) [Compound 67-P2, 5-(2-ethylpyridin-3-yl)-1-methyl-7-(trifluoromethyl)-1,5-dihydro-4H-imidazo[4,5-c][1,8]naphthyridin-4-one], for which the IC50 was < 0.1 µM (class symbols) and 0.0414 µM (numeric values).

Regarding `C#Cc1cccc(-n2c(=O)c3ncn(C)c3c3ccc(C(F)(F)F)nc32)c1Cl` (single isomer, unassigned) [Compound 80-P2, 5-(2-chloro-3-ethynylphenyl)-1-methyl-7-(trifluoromethyl)-1,5-dihydro-4H-imidazo[4,5-c][1,8]naphthyridin-4-one], the IC50 is < 0.1 µM (class symbols) and 0.0325 µM (numeric values).

With `O=c1c2ncoc2c2ccc(C(F)(F)F)cc2n1-c1cccnc1C1CC1` (single isomer, unassigned) [Compound 85-P2, 5-(2-cyclopropylpyridin-3-yl)-7-(trifluoromethyl)oxazolo[4,5-c]quinolin-4(5H)-one], the IC50 runs as follows: (class symbols) < 0.1 µM; (numeric values) 0.0336 µM.

As to `O=c1c2ncoc2c2ccc(C(F)(F)F)nc2n1-c1cccnc1C(F)(F)F` (single isomer, unassigned) [Compound 86-P2, 7-trifluoromethyl-5-(2-trifluoromethylpyridin-3-yl)oxazolo[4,5-c][1,8]naphthyridin-4(5H)-one], the IC50 by setting is: (class symbols) < 0.1 µM; (numeric values) 0.025 µM.

For the molecule `O=c1c2ncn(C(F)F)c2c2ccc(Cl)cc2n1-c1cccnc1C1CC1` (single isomer, unassigned) [Compound 87-P2, 7-chloro-5-(2-cyclopropylpyridin-3-yl)-1-difluoromethyl-1,5-dihydro-4H-imidazo[4,5-c]quinolin-4-one], the IC50 reads like this: (class symbols) < 0.1 µM; (numeric values) 0.0387 µM.

Turning to `O=c1[nH]c2c(=O)n(-c3ccccc3Cl)c3nc(C(F)(F)F)ccc3c2[nH]1` [Compound 4, 5-(2-chlorophenyl)-7-(trifluoromethyl)-3,5-dihydro-1H-imidazo[4,5-c][1,8]naphthyridine-2,4-dione], the IC50 reads like this: (class symbols) < 0.1 µM; (numeric values) 0.0696 µM.

As to `O=c1c2cn[nH]c2c2ccc(C(F)(F)F)nc2n1-c1ccccc1Cl` [Compound 7, 5-(2-chlorophenyl)-7-(trifluoromethyl)-1,5-dihydro-4H-pyrazolo[4,3-c][1,8]naphthyridin-4-one], the IC50 was 0.1 to 0.5 µM (class symbols) and 0.128 µM (numeric values).

As for `O=c1c2ncoc2c2ccc(C(F)(F)F)nc2n1-c1ccccc1Cl` [Compound 8, 5-(2-chlorophenyl)-7-(trifluoromethyl)oxazolo[4,5-c][1,8]naphthyridin-4(5H)-one], the IC50 is, setting by setting: (class symbols) < 0.1 µM; (numeric values) 0.0644 µM.

Take `CCOc1ccc2c3[nH]c(=O)[nH]c3c(=O)n(-c3ccc(OC(F)F)cc3)c2n1` [Compound 10, 5-(4-(difluoromethoxy)phenyl)-7-ethoxy-3,5-dihydro-1H-imidazo[4,5-c][1,8]naphthyridine-2,4-dione]: the IC50 is < 0.1 µM (class symbols) and 0.033 µM (numeric values).

As for `CCOc1ccc2c3[nH]c(OC)nc3c(=O)n(-c3ccc(OC(F)F)cc3)c2n1` [Compound 11, 5-(4-(difluoromethoxy)phenyl)-7-ethoxy-2-methoxy-1,5-dihydro-4H-imidazo[4,5-c][1,8]naphthyridin-4-one], the IC50 is < 0.1 µM (class symbols) and 0.0566 µM (numeric values).

With `Cn1cc2c(n1)c(=O)n(-c1ccc(OC(F)F)cc1)c1nc(C(F)(F)F)ccc21` [Compound 12, 5-(4-(difluoromethoxy)phenyl)-2-methyl-7-(trifluoromethyl)-2,5-dihydro-4H-pyrazolo[3,4-c][1,8]naphthyridin-4-one], the IC50 was 0.1 to 0.5 µM (class symbols) and 0.103 µM (numeric values).

Take `CCOc1ccc2c3cn(C)nc3c(=O)n(-c3ccc(OC(F)F)cc3)c2n1` [Compound 13, 5-(4-(difluoromethoxy)phenyl)-7-ethoxy-2-methyl-2,5-dihydro-4H-pyrazolo[3,4-c][1,8]naphthyridin-4-one]: the IC50 reads like this: (class symbols) 0.1 to 0.5 µM; (numeric values) 0.122 µM.

In the case of `CCOc1ccc2c3c(ncn3C)c(=O)n(-c3ccc(OC(F)F)cc3)c2n1` [Compound 14, 5-(4-(difluoromethoxy)phenyl)-7-ethoxy-1-methyl-1,5-dihydro-4H-imidazo[4,5-c][1,8]naphthyridin-4-one], the IC50 (class symbols) was < 0.1 µM and the IC50 (numeric values) stood at 0.0464 µM.

With `Cn1cnc2c(=O)n(-c3ccc(OC(F)F)cc3)c3nc(C(F)(F)F)ccc3c21` [Compound 15, 5-(4-(difluoromethoxy)phenyl)-1-methyl-7-(trifluoromethyl)-1H-imidazo[4,5-c][1,8]naphthyridin-4(5H)-one], the IC50 reads like this: (class symbols) < 0.1 µM; (numeric values) 0.0385 µM.

Take `O=c1c2ncoc2c2ccc(C(F)(F)F)nc2n1-c1ccc(OC(F)F)cc1` [Compound 16, 5-(4-(difluoromethoxy)phenyl)-7-(trifluoromethyl)oxazolo[4,5-c][1,8]naphthyridin-4(5H)-one]: the IC50 (class symbols) was 0.1 to 0.5 µM and the IC50 (numeric values) is 0.122 µM.

Regarding `O=c1c2ocnc2c2ccc(C(F)(F)F)nc2n1-c1ccc(OC(F)F)cc1` [Compound 18, 5-(4-(difluoromethoxy)phenyl)-7-(trifluoromethyl)oxazolo[5,4-c][1,8]naphthyridin-4(5H)-one], the IC50 by setting is: (class symbols) 0.1 to 0.5 µM; (numeric values) 0.442 µM.

As for `Cn1cnc2c(=O)n(-c3ccc(Cl)cc3)c3nc(C(F)(F)F)ccc3c21` [Compound 19, 5-(4-chlorophenyl)-1-methyl-7-(trifluoromethyl)-1,5-dihydro-4H-imidazo[4,5-c][1,8]naphthyridin-4-one], the IC50 (class symbols) was < 0.1 µM and the IC50 (numeric values) stood at 0.0514 µM.

With `Cn1cnc2c(=O)n(-c3ccccc3)c3nc(C(F)(F)F)ccc3c21` [Compound 21, 1-methyl-5-phenyl-7-(trifluoromethyl)-1,5-dihydro-4H-imidazo[4,5-c][1,8]naphthyridin-4-one], the IC50 (class symbols) was < 0.1 µM and the IC50 (numeric values) was found to be 0.0649 µM.

In the case of `Cn1cnc2c(=O)n(-c3cccc(Cl)c3)c3nc(C(F)(F)F)ccc3c21` [Compound 22, 5-(3-chlorophenyl)-1-methyl-7-(trifluoromethyl)-1,5-dihydro-1H-imidazo[4,5-c][1,8]naphthyridin-4-one], the IC50 (class symbols) fell in the range of 0.1 to 0.5 µM.

Take `Cn1cnc2c(=O)n(-c3ccccc3F)c3nc(C(F)(F)F)ccc3c21` [Compound 23, 5-(2-fluorophenyl)-1-methyl-7-(trifluoromethyl)-1,5-dihydro-4H-imidazo[4,5-c][1,8]naphthyridin-4-one]: the IC50 runs as follows: (class symbols) < 0.1 µM; (numeric values) 0.0788 µM.

In the case of `Cn1cnc2c(=O)n(-c3c(F)cccc3Cl)c3nc(C(F)(F)F)ccc3c21` [Compound 26, 5-(2-chloro-6-fluorophenyl)-1-methyl-7-(trifluoromethyl)-1,5-dihydro-4H-imidazo[4,5-c][1,8]naphthyridin-4-one], the IC50 (class symbols) was 0.1 to 0.5 µM and the IC50 (numeric values) is 0.135 µM.
